Like-named read-outs stand apart in the source and are kept apart here.

Our source for the Dmax and DC50 values is US20260092061A1, “COMPOUNDS FOR TARGETED PROTEIN DEGRADATION” (Amphista Therapeutics Limited, priority 2022, published 2026).

In one assay the target is T1, BRD9 (Homo sapiens, UniProt Q9H8M2).
T1 sequence (Q9H8M2 1-597): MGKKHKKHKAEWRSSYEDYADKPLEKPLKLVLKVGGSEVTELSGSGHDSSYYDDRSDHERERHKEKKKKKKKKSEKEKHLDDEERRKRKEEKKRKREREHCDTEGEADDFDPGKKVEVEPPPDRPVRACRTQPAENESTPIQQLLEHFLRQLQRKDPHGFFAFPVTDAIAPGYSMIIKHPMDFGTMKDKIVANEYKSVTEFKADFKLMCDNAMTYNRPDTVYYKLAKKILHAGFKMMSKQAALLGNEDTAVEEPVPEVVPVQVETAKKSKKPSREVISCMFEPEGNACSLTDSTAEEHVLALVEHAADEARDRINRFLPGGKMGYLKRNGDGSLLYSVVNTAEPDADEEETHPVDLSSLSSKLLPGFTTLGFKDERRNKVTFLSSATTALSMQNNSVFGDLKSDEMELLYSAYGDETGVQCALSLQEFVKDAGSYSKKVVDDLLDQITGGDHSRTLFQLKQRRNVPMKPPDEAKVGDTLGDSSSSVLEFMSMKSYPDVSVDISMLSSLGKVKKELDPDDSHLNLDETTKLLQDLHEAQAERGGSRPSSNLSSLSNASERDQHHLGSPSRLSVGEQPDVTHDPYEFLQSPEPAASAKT
The assay can be described thus: Degradation of BRD9 (IF), immunofluorescence in MV4-11 cells, 24 hours (Assay Protocol 2). Further details: A suspension of MV4-11 cells (ATCC CRL-9591) was prepared; host or cells: MV4-11. The assay is classed as cell-based. The method, boiled down:
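MV4-11 cells treated with compound 24 h at 37° C., then fixed, permeabilised and immunostained for BRD9 (anti-BRD9 E4Q3F, Alexa 647 secondary, Hoechst counterstain). High-content imaging quantified nuclear BRD9 signal; % BRD9 remaining normalised to DMSO and 100 nM CFT-8634 controls.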

A further assay deals with T2, BRD7 (Homo sapiens, UniProt Q9NPI1).
T2 construct: HiBiT-BRD7 KI HEK293 (LgBiT) Cells (Promega CS3023410); host or cells: HEK293 (LgBiT), HiBiT knock-in at the BRD7 locus
T2 sequence (Q9NPI1 1-651): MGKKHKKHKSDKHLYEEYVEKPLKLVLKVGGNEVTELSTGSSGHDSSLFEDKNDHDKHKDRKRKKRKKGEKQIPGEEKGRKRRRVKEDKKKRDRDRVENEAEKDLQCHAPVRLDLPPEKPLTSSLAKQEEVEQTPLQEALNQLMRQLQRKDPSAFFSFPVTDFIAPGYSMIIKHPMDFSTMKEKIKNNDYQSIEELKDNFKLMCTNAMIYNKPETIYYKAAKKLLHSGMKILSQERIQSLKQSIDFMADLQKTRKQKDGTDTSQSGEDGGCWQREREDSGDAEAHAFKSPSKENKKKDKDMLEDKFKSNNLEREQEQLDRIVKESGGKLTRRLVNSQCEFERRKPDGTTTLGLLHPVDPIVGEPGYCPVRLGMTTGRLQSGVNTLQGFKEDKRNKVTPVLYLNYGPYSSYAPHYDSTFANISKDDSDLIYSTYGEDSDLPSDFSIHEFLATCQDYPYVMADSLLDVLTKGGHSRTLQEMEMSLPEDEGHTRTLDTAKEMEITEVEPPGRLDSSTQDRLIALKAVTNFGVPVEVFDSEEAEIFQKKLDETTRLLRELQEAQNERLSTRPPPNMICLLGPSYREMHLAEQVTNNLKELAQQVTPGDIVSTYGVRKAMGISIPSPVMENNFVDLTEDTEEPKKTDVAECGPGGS
The assay can be described thus: BRD7 degradation, HiBiT-BRD7 KI HEK293 (LgBiT) cells, NanoGlo Lytic Endpoint assay (Assay Protocol 1). The assay is classed as cell-based. Conditions: for Dmax / DC50: Table 5, assay protocol 1.

[1] abbreviates: MV4-11, Table 4, BRD9 degradation, determined according to Assay Protocol 2, read-out: Dmax^2.
[2] abbreviates: Table 4, BRD9 degradation, determined according to Assay Protocol 2, read-out: DC50^2.

Take `COc1cc(-c2cn(C)c(=O)c(C)c2C)cc(OC)c1CN1CCN(Cc2cccc3c2CCN(C(=O)/C(C#N)=C/c2nccs2)C3C)CC1` (mixture of isomers) [Compound A4, (E/Z)-2-(5-((4-(2,6-dimethoxy-4-(1,4,5-trimethyl-6-oxo-1,6-dihydropyridin-3-yl)benzyl)piperazin-1-yl)methyl)-1-methyl-1,2,3,4-tetrahydroisoquinoline-2-carbonyl)-3-(thiazol-2-yl)acrylonitrile]: at BRD9 (MV4-11, 24 h, Table 2, BRD9 degradation (IF), Assay Protocol 2, MV4-11 cells, read-out: Assay 2 DCmax), the Dmax was 70 to 75%. On BRD9 (Table 2, BRD9 degradation (IF), Assay Protocol 2, MV4-11 cells, read-out: Assay 2 DC50), the DC50 was less than 1.25 nM. This compound returned a Dmax at 1 µM at BRD7 (HEK293, Table 3, assay 1, 1 μM compound at 5 h of treatment) of less than 25%.
Consider `COc1cc(-c2cn(C)c(=O)c(C)c2C)cc(OC)c1CN(C)C1CCN(C(=O)/C(C#N)=C/C(C)(C)C)CC1` [BRD9d, (E/Z)-2-(4-((2,6-dimethoxy-4-(1,4,5-trimethyl-6-oxo-1,6-dihydropyridin-3-yl)benzyl)(methyl)amino)piperidine-1-carbonyl)-4,4-dimethylpent-2-enenitrile], for which the Dmax on BRD9 (setting [1]) was 50 to 70%; on BRD7 (HEK293) it was less than 25%. Further, the DC50 on BRD9 (setting [2]) was greater than 200 nM; at BRD7 it was greater than 1000 nM.
Regarding `COc1cc(-c2cn(C)c(=O)c(C)c2C)cc(OC)c1CN1C2CC1CN(C(=O)/C(C#N)=C/c1cccc(Br)n1)C2` (mixture of isomers) [BRD9o, (E/Z)-3-(6-bromopyridin-2-yl)-2-(6-(2,6-dimethoxy-4-(1,4,5-trimethyl-6-oxo-1,6-dihydropyridin-3-yl)benzyl)-3,6-diazabicyclo[3.1.1]heptane-3-carbonyl)acrylonitrile], the DC50 on BRD9 (setting [2]) was 25 to 200 nM; at BRD7 it was greater than 1000 nM. Moreover, the Dmax at BRD7 (HEK293) was in the range of 25 to 40%.
With `COc1cc(-c2cn(C)c(=O)c(C)c2C)cc(OC)c1CN1CCN(C(=O)/C(C#N)=C/C(C)(C)C)C2(CC2)C1` [BRD9e, (E/Z)-2-(7-(2,6-dimethoxy-4-(1,4,5-trimethyl-6-oxo-1,6-dihydropyridin-3-yl)benzyl)-4,7-diazaspiro[2,5]octane-4-carbonyl)-4,4-dimethylpent-2-enenitrile], the Dmax at BRD9 (setting [1]) was 30 to 50%; at BRD9 (MV4-11, Table 5, cells marked *: measured in accordance with Assay Protocol 2, read-out: BRD9 Dmax (%)) it was 25 to 40%; at BRD7 (HEK293), less than 25%. The DC50 is greater than 1000 nM at BRD9 (Table 5, cells marked *: measured in accordance with Assay Protocol 2, read-out: BRD9 DC50) and greater than 1000 nM at BRD7.

A word on the DC50: it is the concentration at which degradation of the target reaches its halfway point.
